Assay results reported in patent US20240116985A1, “STAPLED PEPTIDES AND METHODS THEREOF” (priority 2020, published 2024).
pIC50: −log10 of the molar value. ≈ marks a conversion by molar mass, not a printed value. Where two headings read alike, the source gives them in different places.

Experiments:
Solubility in PBS = assay type: physicochemical
Summary of the method: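 Solubility is derived from HPLC peak areas: the ratio of the PBS supernatant peak to a 50 μM DMSO peptide peak, times 50 uM.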

[1] = target: T1, beta-catenin/TCF4 engagement (Homo sapiens, UniProt P35222); assay: Nano-BRET target engagement assay (B-cat-Halo & TCF4-Luc in HEK293 cells); assay type: cell-based
T1 construct: expressed in transfected cells; host or cells: HEK293
T1 sequence (P35222 1-781): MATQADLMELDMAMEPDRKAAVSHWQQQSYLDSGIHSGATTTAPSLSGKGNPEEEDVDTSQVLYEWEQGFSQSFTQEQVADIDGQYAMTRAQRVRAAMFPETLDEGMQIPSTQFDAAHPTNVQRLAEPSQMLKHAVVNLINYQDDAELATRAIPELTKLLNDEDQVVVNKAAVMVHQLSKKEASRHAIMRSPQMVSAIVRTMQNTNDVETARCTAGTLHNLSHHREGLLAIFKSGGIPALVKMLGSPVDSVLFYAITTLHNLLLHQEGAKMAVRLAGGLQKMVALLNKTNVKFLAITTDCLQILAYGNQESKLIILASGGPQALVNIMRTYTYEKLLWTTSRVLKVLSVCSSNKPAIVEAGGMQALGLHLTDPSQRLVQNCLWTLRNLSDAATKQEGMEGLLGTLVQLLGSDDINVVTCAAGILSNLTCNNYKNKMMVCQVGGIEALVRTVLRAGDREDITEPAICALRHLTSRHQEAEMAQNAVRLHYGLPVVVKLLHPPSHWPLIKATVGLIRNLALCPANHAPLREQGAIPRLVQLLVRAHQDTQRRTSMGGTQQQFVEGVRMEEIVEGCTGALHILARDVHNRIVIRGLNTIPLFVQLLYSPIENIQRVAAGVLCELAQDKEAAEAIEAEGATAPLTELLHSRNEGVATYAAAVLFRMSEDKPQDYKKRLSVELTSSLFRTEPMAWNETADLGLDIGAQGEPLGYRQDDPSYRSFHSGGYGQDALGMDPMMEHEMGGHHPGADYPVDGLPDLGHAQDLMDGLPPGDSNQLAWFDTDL

CHI Log D procedure = assay type: physicochemical; details: for CHI Log D: pH 7.4
[2] = target: T2, full-length beta-Catenin (Uniprot ID P35222) (Homo sapiens, UniProt P35222); assay: Fluorescence polarization IC50 (beta-catenin / 5FAM-TCF4 10-53 competition); assay type: binding
T2 construct: 10 nM full-length beta-Catenin (Uniprot ID P35222)
T2 sequence (P35222 1-781): T1 sequence (P35222 1-781)

[3] = absolute IC50, read-out: NanoBRET Abs IC50
[4] = fluorescence polarization, read-out: beta-Catenin FP IC50

SMILES | Solubility (Solubility in PBS; Solubility (uM)) | pIC50 [1, 3] | chromatographic logD (CHI Log D procedure; pH 7.4, CHI Log D) | pIC50 ([2]; read-out: beta-Catenin FP IC50) | Solubility (Solubility in PBS) | pIC50 ([1]; read-out: NanoBRET Abs IC50) | CHI Log D (CHI Log D procedure) | pIC50 [2, 4] | pIC50 ([2]; read-out: FP EC50) | pIC50 ([1]; read-out: NanoBRET IC50) | logD (CHI Log D procedure; pH 7.4, CHI Log D) | inhibition at 10 µM ([1]; HEK293, @ 10 uM, read-out: NanoBRET % inh @ 10 uM)
CC(=O)N1CCC[C@]12CC=CCCCC1(CCCC=CCCCOC(=O)N3CC[C@@](C(=O)N[C@@H](Cc4ccsc4)C(=O)N[C@@H](Cc4csc5ccccc45)C(=O)N[C@@H](Cc4c[nH]cn4)C(N)=O)(C3)NC(=O)[C@H](CCO)NC(=O)[C@H](Cc3ccccc3)NC(=O)[C@H](C)NC(=O)[C@H](C)NC(=O)[C@H](CC(=O)O)NC(=O)[C@H](CC(=O)O)NC1=O)NC(=O)[C@H](CC(C)(C)C)NC(=O)[C@H](CC(=O)O)NC2=O (stereo partly drawn) [I-804, Ac-PL3-Asp-Npg-B5-Asp-Asp-Ala-Ala-Phe-Hse-PyrS2-3Thi-BztA-His-NH2] | 44 µM (≈ 84.2 µg/mL) |  | 2.11 | 8.30 |  | 4.87 |  |  |  |  |  | 
CC(=O)N1CCC[C@]12CC=CCCCC1(CCCC=CCCCOC(=O)N3CC[C@@](C(=O)N[C@@H](Cc4ccsc4)C(=O)N[C@@H](Cc4csc5ccccc45)C(=O)N[C@@H](CCC(N)=O)C(N)=O)(C3)NC(=O)[C@H](CC(N)=O)NC(=O)[C@H](Cc3ccccc3)NC(=O)[C@H](C)NC(=O)[C@H](C)NC(=O)[C@H](CC(=O)O)NC(=O)[C@H](CC(=O)O)NC1=O)NC(=O)[C@H](CC(C)C)NC(=O)[C@H](CC(=O)O)NC2=O (stereo partly drawn) [I-689, Ac-PL3-Asp-Leu-B5-Asp-Asp-Ala-Ala-Phe-Asn-PyrS2-3Thi-BztA-Gln-NH2] |  | 4.47 |  |  | 50 µM (≈ 95.2 µg/mL) |  | 1.957 | 7.96 | 7.96 |  |  | 
CC(=O)N1CCC[C@]12CC=CCCCC1(CCCC=CCCCOC(=O)N3CC[C@@](C(=O)N[C@@H](Cc4ccsc4)C(=O)N[C@@H](Cc4csc5ccccc45)C(=O)N[C@@H](Cc4c[nH]cn4)C(N)=O)(C3)NC(=O)[C@H](CCCNC(N)=O)NC(=O)[C@H](Cc3ccccc3)NC(=O)[C@H](C)NC(=O)[C@H](C)NC(=O)[C@H](CC(=O)O)NC(=O)[C@H](CC(=O)O)NC1=O)NC(=O)[C@H](CC(C)(C)C)NC(=O)[C@H](CC(=O)O)NC2=O (stereo partly drawn) [I-806, Ac-PL3-Asp-Npg-B5-Asp-Asp-Ala-Ala-Phe-Cit-PyrS2-3Thi-BztA-His-NH2] | 37 µM (≈ 72.9 µg/mL) |  | 2.04 | 8.30 |  | 4.67 |  |  |  |  |  | 
CC(=O)N1CCC[C@]12CC=CCCCC1(CCCC=CCCCOC(=O)N3CC[C@@](C(=O)N[C@@H](Cc4ccsc4)C(=O)N[C@@H](Cc4csc5ccccc45)C(=O)N[C@@H](CCC(N)=O)C(N)=O)(C3)NC(=O)[C@H](CC(N)=O)NC(=O)[C@H](Cc3ccccc3)NC(=O)[C@H](CCCCNC(=O)C34CC5CC(CC(C5)C3)C4)NC(=O)[C@H](C)NC(=O)[C@H](CC(=O)O)NC(=O)[C@H](CC(=O)O)NC1=O)NC(=O)[C@H](CC(C)(C)C)NC(=O)[C@H](CC(=O)O)NC2=O (stereo partly drawn) [I-899, Ac-PL3-Asp-Npg-B5-Asp-Asp-Ala-[AdamantC]Lys-Phe-Asn-PyrS2-3Thi-BztA-Gln-NH2] | 40 µM (≈ 85.5 µg/mL) |  | 2.26 | 7.55 |  | < 4.70 |  |  |  |  |  | 
CC(=O)N1CCC[C@]12CC=CCCCC1(CCCC=CCCCCCC[C@@](C)(C(=O)N[C@@H](Cc3ccccc3)C(=O)N[C@@H](Cc3csc4ccccc34)C(=O)N[C@@H](CCC(N)=O)C(N)=O)NC(=O)[C@H](CC(N)=O)NC(=O)[C@H](Cc3ccccc3)NC(=O)[C@H](C)NC(=O)[C@H](C)NC(=O)[C@H](CCC(=O)O)NC(=O)[C@H](CC(=O)O)NC1=O)NC(=O)[C@H](CC1CCCCC1)NC(=O)[C@H](CC(=O)O)NC2=O (stereo partly drawn) [I-620, Ac-PL3-Asp-Cha-B5-Asp-Glu-Ala-Ala-Phe-Asn-S8-Phe-BztA-Gln-NH2] |  | 4.92 |  |  | 48 µM (≈ 91.6 µg/mL) |  | 2.688 | 7.46 | 7.46 | 5.24 |  | 
CC(=O)N1CCC[C@]12CC=CCCCC1(CCCC=CCCCOC(=O)N3CC[C@@](C(=O)N[C@@H](Cc4ccsc4)C(=O)N[C@@H](Cc4csc5ccccc45)C(N)=O)(C3)NC(=O)[C@H](CC(N)=O)NC(=O)[C@H](Cc3ccccc3)NC(=O)[C@H](C)NC(=O)[C@H](C)NC(=O)[C@H](Cc3c[nH]cn3)NC(=O)[C@H](CC(=O)O)NC1=O)NC(=O)[C@H](CC(C)(C)C)NC(=O)[C@H](CC(=O)O)NC2=O (stereo partly drawn) [I-863, Ac-PL3-Asp-Npg-B5-Asp-His-Ala-Ala-Phe-Asn-PyrS2-3Thi-BztA-NH2] |  |  |  | 7.66 | 10 µM (≈ 18.1 µg/mL) | < 4.70 |  |  |  |  | 2.28 | 
CC(=O)N1CCC[C@]12CC=CCCCC1(CCCC=CCCCOC(=O)N3CC[C@@](C(=O)N[C@@H](Cc4ccsc4)C(=O)N[C@@H](Cc4csc5ccccc45)C(=O)N[C@@H](Cc4c[nH]cn4)C(N)=O)(C3)NC(=O)[C@H](CC(N)=O)NC(=O)[C@H](Cc3ccccc3)NC(=O)[C@H](C)NC(=O)[C@H](C)NC(=O)[C@H](CC(=O)O)NC(=O)[C@H](CC(=O)O)NC1=O)NC(=O)[C@H](CC(C)(C)C)NC(=O)[C@H](CC(=O)O)NC2=O (stereo partly drawn) [I-694, Ac-PL3-Asp-Npg-B5-Asp-Asp-Ala-Ala-Phe-Asn-PyrS2-3Thi-BztA-His-NH2] |  |  |  |  | 40 µM (≈ 77.1 µg/mL) |  | 2.073 | 8.30 |  |  |  | 32.7%
CC(=O)N1CCC[C@]12CC=CCCCC1(CCCC=CCCCOC(=O)N3CC[C@@](C(=O)N[C@@H](Cc4ccccc4)C(=O)N[C@@H](Cc4csc5ccccc45)C(=O)N[C@@H](Cc4c[nH]cn4)C(N)=O)(C3)NC(=O)[C@H](CC(N)=O)NC(=O)[C@H](Cc3ccccc3)NC(=O)[C@H](C)NC(=O)[C@H](C)NC(=O)[C@H](CCC(=O)O)NC(=O)[C@H](CC(=O)O)NC1=O)NC(=O)[C@H](CC(C)(C)C)NC(=O)[C@H](CC(=O)O)NC2=O (stereo partly drawn) [I-692, Ac-PL3-Asp-Npg-B5-Asp-Glu-Ala-Ala-Phe-Asn-PyrS2-Phe-BztA-His-NH2] |  | 4.59 |  |  | 38 µM (≈ 73.5 µg/mL) |  | 2.12 | 8.05 | 8.05 |  |  | 

Results, then the molecule that gave them:

Solubility (Solubility in PBS; Solubility (uM)) | pIC50 [1, 3] | chromatographic logD (CHI Log D procedure; pH 7.4, CHI Log D) | pIC50 ([2]; read-out: beta-Catenin FP IC50) | Solubility (Solubility in PBS) | pIC50 ([1]; read-out: NanoBRET Abs IC50) | CHI Log D (CHI Log D procedure) | pIC50 [2, 4] | pIC50 ([2]; read-out: FP EC50) | pIC50 ([1]; read-out: NanoBRET IC50) | logD (CHI Log D procedure; pH 7.4, CHI Log D) | inhibition at 10 µM ([1]; HEK293, @ 10 uM, read-out: NanoBRET % inh @ 10 uM) | SMILES
41 µM (≈ 78.6 µg/mL) | 4.77 | 2.22 | 7.96 |  |  |  |  |  |  |  |  | CC(=O)N1CCC[C@]12CC=CCCCC1(CCCC=CCCCOC(=O)N3CC[C@@](C(=O)N[C@@H](Cc4ccsc4)C(=O)N[C@@H](Cc4csc5ccccc45)C(=O)N[C@@H](CCC(N)=O)C(N)=O)(C3)NC(=O)[C@H](CC(N)=O)NC(=O)[C@H](Cc3ccccc3)NC(=O)[C@H](C)NC(=O)[C@H](C)NC(=O)[C@H](CC(N)=O)NC(=O)[C@H](CC(=O)O)NC1=O)NC(=O)[C@H](CC(C)(C)C)NC(=O)[C@H](CC(=O)O)NC2=O (stereo partly drawn) [I-836, Ac-PL3-Asp-Npg-B5-Asp-Asn-Ala-Ala-Phe-Asn-PyrS2-3Thi-BztA-Gln-NH2]
47 µM (≈ 86.7 µg/mL) | 5.05 | 2.16 | 8.05 |  |  |  |  |  |  |  |  | CC(=O)N1CCC[C@]12CC=CCCCC1(CCCC=CCCCOC(=O)N3CC[C@@](C(=O)N[C@@H](Cc4ccccc4)C(=O)N[C@@H](Cc4csc5ccccc45)C(=O)N[C@@H](CO)C(N)=O)(C3)NC(=O)[C@H](CO)NC(=O)[C@H](Cc3ccccc3)NC(=O)[C@H](C)NC(=O)[C@H](C)NC(=O)[C@H](CC(=O)O)NC(=O)[C@H](CC(=O)O)NC1=O)NC(=O)[C@H](CC(C)(C)C)NC(=O)[C@H](CC(=O)O)NC2=O (stereo partly drawn) [I-1099, Ac-PL3-Asp-Npg-B5-Asp-Asp-Ala-Ala-Phe-Ser-PyrS2-Phe-BztA-Ser-NH2]
 |  | 2.38 | 7.72 | 10 µM (≈ 19.3 µg/mL) | 4.84 |  |  |  |  |  |  | CC(=O)N1CCC[C@]12CC=CCCCC1(CCCC=CCCCOC(=O)N3CC[C@@](C(=O)N[C@@H](Cc4ccccc4Cl)C(=O)N[C@@H](Cc4csc5ccccc45)C(=O)N[C@@H](CCC(N)=O)C(N)=O)(C3)NC(=O)[C@H]([C@@H](C)O)NC(=O)[C@H](Cc3ccccc3)NC(=O)[C@H](C)NC(=O)[C@H](C)NC(=O)[C@H](CC(N)=O)NC(=O)[C@H](CC(=O)O)NC1=O)NC(=O)[C@H](CC(C)(C)C)NC(=O)[C@H](CC(=O)O)NC2=O (stereo partly drawn) [I-1014, Ac-PL3-Asp-Npg-B5-Asp-Asn-Ala-Ala-Phe-Thr-PyrS2-2C1F-BztA-Gln-NH2]
12 µM (≈ 24.2 µg/mL) |  | 2.46 | 7.19 |  | 4.55 |  |  |  |  |  |  | CC(=O)N1CCC[C@]12CC=CCCCC1(CCCC=CCCCOC(=O)N3CC[C@@](C(=O)N[C@@H](Cc4ccccc4Cl)C(=O)N[C@@H](Cc4csc5ccccc45)C(=O)N[C@@H](CCC(N)=O)C(N)=O)(C3)NC(=O)[C@H](CC(C)C)NC(=O)[C@H](Cc3ccc(C(F)(F)F)cc3)NC(=O)[C@H](C)NC(=O)[C@H](C)NC(=O)[C@H](CC(=O)O)NC(=O)[C@H](CC(=O)O)NC1=O)NC(=O)[C@H](CC(C)(C)C)NC(=O)[C@H](CC(=O)O)NC2=O (stereo partly drawn) [I-1123, Ac-PL3-Asp-Npg-B5-Asp-Asp-Ala-Ala-4F3MeF-Leu-PyrS2-2C1F-BztA-Gln-NH2]
